Experimental data: patent publication US11021472B2, “Use of compounds comprising two or more hydrophobic domains and a hydrophilic domain comprising PEG moieties for stabilization of a cell” (Roche Diagnostics Operations, Inc., priority 2013, dated 2021)
Values joined by “and” are separate entries in the source; they are usually repeats but may differ in a detail not shown here. Equal entries are not always repeated. Where two headings read alike, the source gives them in different places.

Tests used:
WBC [1] = experiment: WBC recovery rate after centrifugation (stabilization of cells); type: cell-based, human; settings: for performance in WBC recovery rate after centrifugation (ranking): Centrifugation 20 min, 10 min, 1 h; for WBC recovery rate after centrifugation: dependence on molecule concentration: Centrifugation 10 min
Description: (§1) Centrifugation characteristics: 10 min, 300×g.
as §1
The respective left, middle and right columns per assay represent different Experimenters 1, 2 and 3. […] Centrifugation characteristics: 10 min, 300×g. Molecule: Cholesteryl-TEG-Cholesteryl-TEG-(SpacerC18)7-Fluos-Biotin-TEG.
Following molecules were tested: 1234: 5′-(Cholesteryl-TEG)2-Spacer C18-dT-Biotin-TEG-3′; 1248: 3′-(Cholesteryl-TEG)2-PEG2000-Fluos-Biotin-TEG-5′ INVERS; 1254: 3′-(Cholesteryl-TEG)2-SpacerC18-Fluos-Biotin-TEG-5′ INVERS; 1255: 3′-(Myristic acid)2-PEG2000-dT-Biotin-TEG-5′ INVERS. […] Centrifugation characteristics: 20 min, 300×g. Respective left column: 10 min incubation with molecule. Respective middle column: 1 h min incubation with molecule. Respective right column: 2 h incubation with molecule.
Following molecules were tested: 1255: 3′-(Myristic acid)2-PEG2000-dT-Biotin-TEG-5′ INVERS; 1234: 5′-(Cholesteryl-TEG)2-Spacer C18-dT-Biotin-TEG-3′; 1248: 3′-(Cholesteryl-TEG)2-PEG2000-Fluos-Biotin-TEG-5′ INVERS; 1254: 3′-(Cholesteryl-TEG)2-SpacerC18-Fluos-Biotin-TEG-5′ INVERS. […] Centrifugation characteristics: 20 min, 500×g. Respective left column: 10 min incubation with molecule. Respective middle column: 1 h min incubation with molecule. Respective right column: 3 h incubation with molecule.
Following molecules were tested: 1255: 3′-(Myristic acid)2-PEG2000-dT-Biotin-TEG-5′ INVERS; 1234: 5′-(Cholesteryl-TEG)2-Spacer C18-dT-Biotin-TEG-3′; 1248: 3′-(Cholesteryl-TEG)2-PEG2000-Fluos-Biotin-TEG-5′ INVERS; 1254: 3′-(Cholesteryl-TEG)2-SpacerC18-Fluos-Biotin-TEG-5′ INVERS. […] Centrifugation characteristics: 20 min, 1000×g. Respective left column: 10 min incubation with molecule. Respective middle column: 1 h min incubation with molecule. Respective right column: 2 h incubation with molecule.
Stabilization is typically determined on a population of cells, e.g. 2, 10, 100 or more cells, and the respective mean viability of the cell populations are compared. […] Viability may be determined by determining cell morphology, cell viability and/or cell recovery. Methods for determining cell morphology, cell viability and cell recovery are known in the art. […] For determining cell morphology, visual inspection by microscopy may be performed. For determining cell viability, a cell viability test using WST-1 proliferation kit (RAS) may be performed.

WBCs [2] = experiment: Recovery rate of cells after immobilization on streptavidin (SA) plate; type: cell-based; settings: for Remarks (staining): staining of the cells by the molecule
Description: X=hydrophobic moiety, […]=fluorescein In the following experiment, the recovery rate of cells was determined.

white blood cells (WBCs) = settings: 300,000 WBCs/well
Description: In particular, the performance of a single cholesterol-molecule and different dual-linker molecules (i.e. containing two hydrophobic moieties) was tested. In detail, immobilization of white blood cells (WBCs) on a Streptavidin-coated surface using different linker molecules was tested on a 12-well plate: 300,000 WBCs/well. This was followed by the measurement of the cell recovery rate after immobilization and washing of the cells using the Cellavista instrument (10×Nuclei Operator s9s5).

WBC [3] = test system: WBC
Description: 4× determination. Row A: 200 μl PBS introduced, 1 nmol of compound added thereto respectively, mixed, incubated about 30 min, washed 2×PBS, 800 μl PBS introduced, 300.000 WBC (untreated) added. Row B: 800 μl PBS introduced, 300.000 WBC (untreated) added. Row C: 10×10^6 WBC in 1 ml with 10 nmol compound of invention 10 min incubated, 800 μl PBS/Well introduced, 300.000 treated WBC respectively. The first MTP plate washed after 30 min 2× with PBS, overlayed with Höchst and incubated for 15 min.>Cellavista (Operator s9s5) measured. The second plate was measured after 90 min. The third plate was measured after 150 min.
The experiments were performed for different incubation times, as shown below:
As starting material 5′-(Cholesteryl-TEG)2-PEG2000-Fluos-Biotin_TEG-3′ INVERS (14530 pmol/μl) (Internal Reference No.: 29.891250), and a streptavidin treated MTP (Microcoat), 12 Well plate were used.
Erythrocyte lysis was performed as follows:
EDTA-whole blood 59.423 6.400 WBC/μl (Ambulanz Roche)
lysis buffer: 100 mM NH4Cl+5 mM Hepes+0.5 mM KHCO3+0.1 mM EDTA-K
Ca 1×8 ml whole blood filled in 50 ml Falcon tube with lysis buffer, incubate at room temperature for 10 min
15 min at 250 g centrifugated, pellet resuspended by pipetting in and out in lysis buffer; filled to 50 ml with lysis buffer
15 min 250 g centrifugated, pellet resuspended with PBS, filled to 50 ml with PBS, 15 min 250 g centrifugated, filled to 50 ml with PBS
The design of the experiment on the plate is explained below (see FIG. 2):
Row A: 200 μl PBS introduced, 1 nmol of compound added thereto respectively, mixed, incubated about 30 min, washed 2× PBS, • 800 μl PBS introduced, 300.000 WBC (untreated) added.
Row B: 800 μl PBS introduced, 300.000 WBC (untreated) added.

Epithelial cells = experiment: Labelling (staining) of cells with labelled molecules; type: cell-based
Description: (§2) As shown in the examples, a compound for use according to the invention, wherein the compound comprises a label moiety, is contacted with a cell. As labelling is preferably done with viable or potentially viable cells, the cells are typically present in an aqueous solution, which is preferably buffered and/or contains nutrients, e.g. the cells are suspended in PBS. The labeled compound for use according to the invention may be added to the cells, e.g. in form of a solution, e.g. as aqueous solution by methods known in the art, as pipetting.

WBCs [4] = experiment: as above; type: cell-based
Description: as §2

[5] = 300×g, 2 h incubation with molecule
[6] = 500×g, 3 h incubation with molecule
[7] = Sample 1, compound concentration: 1 nmol/10e6 WBCs
[8] = Sample 1, first table, concentration not given
[9] = Sample 2, Compound Concentration: 100 pmol/10e6 WBCs
[10] = Sample 2, Compound Concentration: 1 nmol/10e6 WBCs

5′-(Cholesteryl-TEG)2-Spacer C18-dT-Biotin-TEG-3′ [compound 1234]
performance in WBC recovery rate after centrifugation (ranking) (WBC [1]; [5]): best performance
performance in WBC recovery rate after centrifugation (ranking) (WBC [1]; [6]): best performance

5′-Myristic acid-Myristic acid-SpacerC18-Fluos-BiotinTEG-3′ [BMO 29.891213]
Remarks (staining) (WBCs [2]): strong

5′-Myristic acid-Myristic acid-(SpacerC18)7-Fluos-BiotinTEG-3′ [BMO 29.891214]
Remarks (staining) (WBCs [2]): strong

5′-(Cholesteryl-TEG)2-Spacer C18-Fluos-Biotin_TEG-3′ INVERS [29.891254]
cell count per well (white blood cells (WBCs); [7]): 244649 and 234262 and 260760
cell count per well (white blood cells (WBCs); [8]): 157660 and 190148 and 170850
Mean (cell count) (white blood cells (WBCs); [9]): 197067.00
cell count per well (white blood cells (WBCs); [9]): 205917 and 185100 and 200184
Mean (cell count) (white blood cells (WBCs); [10]): 245376.00
cell count per well (white blood cells (WBCs); [10]): 247428 and 244396 and 244304
performance in WBC recovery rate after centrifugation (ranking) (WBC [1]; [5]): followed by compound 1255 and 1254
performance in WBC recovery rate after centrifugation (ranking) (WBC [1]; [6]): followed by molecule 1255 and 1254

3′-(Myristic acid)2-PEG2000-dT-Biotin-TEG-5′ INVERS [compound 1255]
performance in WBC recovery rate after centrifugation (ranking) (WBC [1]; [5]): followed by compound 1255 and 1254
performance in WBC recovery rate after centrifugation (ranking) (WBC [1]; [6]): followed by molecule 1255 and 1254

5′-CholesterylTEG-CholesterylTEG-PEG2000-Fluos-BiotinTEG-3′ [BMO 29.891180]
Remarks (staining) (WBCs [2]): strong

5′-Myristic acid-SpacerC9-Myristic acid-PEG2000-Fluos-BiotinTEG-3′ [BMO 29.891197]
Remarks (staining) (WBCs [2]): weak

5′-(Cholesteryl-TEG)2-PEG2000-Fluos-Biotin_TEG-3′ INVERS [29.891250]
MW (mean WBC count; target: 300.000 WBC) (WBC [3]; 30 min, WBC treated): 231829.75
WBC recovery rate [%] (Mean %) (WBC [3]; 30 min, WBC treated: molecule + cells): 77.28%
MW (mean WBC count; target: 300.000 WBC) (WBC [3]; 30 min, Well treated): 64909
WBC recovery rate [%] (Mean %) (WBC [3]; 30 min, well treated: molecule bound to surface): 21.64%
MW (mean WBC count; target: 300.000 WBC) (WBC [3]; 90 min, WBC treated): 249346.25
WBC recovery rate [%] (Mean %) (WBC [3]; 90 min, WBC treated: molecule + cells, listed as molecule useful in methods of invention): 83.12% and 83.1%
MW (mean WBC count; target: 300.000 WBC) (WBC [3]; 90 min, Well treated): 142865
WBC recovery rate [%] (Mean %) (WBC [3]; 90 min, well treated: molecule bound to surface, listed as molecule useful in methods of invention): 47.62% and 47.6%
MW (mean WBC count; target: 300.000 WBC) (WBC [3]; 120 min, WBC treated): 258692.75
WBC recovery rate [%] (Mean %) (WBC [3]; 120 min, WBC treated: molecule + cells): 86.23%
MW (mean WBC count; target: 300.000 WBC) (WBC [3]; 120 min, Well treated): 171062.75
WBC recovery rate [%] (Mean %) (WBC [3]; 120 min, well treated: molecule bound to surface): 57.02%

Biotin-PEG-Lysin-(C18)2 [HH1755]
WBC recovery rate after centrifugation: dependence on molecule concentration (WBC [1]; 300×g): The higher the concentration of the molecule, the higher the cell recovery rate after centrifugation

CCCCCCCCCCCCCCCCCCCCCCN1/C(=C/C=C/c2oc3ccccc3[n+]2CCC)Oc2ccccc21.[I-] [PKH2]
staining of cells by labelled molecule (Epithelial cells): ✓ not all
staining of cells by labelled molecule (WBCs [4]): ✓

5′-Myristic acid-Myristic acid-PEG2000-Fluos-BiotinTEG-3′ [BMO 29.891194]
Remarks (staining) (WBCs [2]): weak and stronger

Biotin-PEG-Lysin-(C18)2 [HH1750]
WBC recovery rate after centrifugation: dependence on molecule concentration (WBC [1]; 300×g): The higher the concentration of the molecule, the higher the cell recovery rate after centrifugation

5′-CholesterylTEG-CholesterylTEG-(SpacerC18)7-Fluos-BiotinTEG-3′ [BMO 29.891222]
WBC recovery rate after centrifugation: dependence on molecule concentration (WBC [1]; 300×g): the higher the molecule concentration, the higher the cell recovery rate after centrifugation
WBC recovery rate after centrifugation: dependence on molecule concentration (WBC [1]; 300×g, listed as A): The higher the molecule concentration, the higher the cell recovery rate after centrifugation
cell stabilization: dependence on the experimenter (WBC [1]; Experimenters 1, 2 and 3, centrifugation 10 min, 300×g): independent on the experimenter

5′-(Cholesterol-TEG)1-Doubler-dT-Biotin-3′ [29.891272]
cell count per well (white blood cells (WBCs); [7]): 199973 and 220701 and 228481
cell count per well (white blood cells (WBCs); [8]): 147132 and 179643 and 181620
Mean (cell count) (white blood cells (WBCs); [9]): 186316.33
cell count per well (white blood cells (WBCs); [9]): 161504 and 201424 and 196021
Mean (cell count) (white blood cells (WBCs); [10]): 247418.33
cell count per well (white blood cells (WBCs); [10]): 241232 and 254894 and 246129

Sulfo-JA133-phenylboronic acid [BMO: 15.000078]
staining of cells by labelled molecule (Epithelial cells): ✓
staining of cells by labelled molecule (WBCs [4]): ✓ not all

5′-(Cholesteryl-TEG)2-Spacer C12-dT-Biotin_TEG-3′ INVERS [29.891253]
cell count per well (white blood cells (WBCs); [7]): 218861 and 221471 and 208802
cell count per well (white blood cells (WBCs); [8]): 105061 and 128195 and 139678
Mean (cell count) (white blood cells (WBCs); [9]): 187757.67
cell count per well (white blood cells (WBCs); [9]): 178919 and 197130 and 187224
Mean (cell count) (white blood cells (WBCs); [10]): 237052.33
cell count per well (white blood cells (WBCs); [10]): 239105 and 240632 and 231420

Biotin-PEG-Lysin-(C18)2 [HH1749]
WBC recovery rate after centrifugation: dependence on molecule concentration (WBC [1]; 300×g): The higher the concentration of the molecule, the higher the cell recovery rate after centrifugation

Biotin-PEG-Lys-(C14)2 [15.260268]
Recovery Rate (WBCs [2]; 1.77 nmol/10e6 Cells): 85.72%
